Reference: ChEMBL document CHEMBL1201862, “PubChem BioAssay data set” (2004)
Activity calls are given as the source filed them.

Columns and labels:
Estrogen receptor = target: T1, Estrogen receptor (Homo sapiens, UniProt P03372); test: ERα coactivator recruitment enhancers – biochemical, TR-FRET, ERα LBD, dose response (AID 737)
T1 sequence (P03372 whole entry): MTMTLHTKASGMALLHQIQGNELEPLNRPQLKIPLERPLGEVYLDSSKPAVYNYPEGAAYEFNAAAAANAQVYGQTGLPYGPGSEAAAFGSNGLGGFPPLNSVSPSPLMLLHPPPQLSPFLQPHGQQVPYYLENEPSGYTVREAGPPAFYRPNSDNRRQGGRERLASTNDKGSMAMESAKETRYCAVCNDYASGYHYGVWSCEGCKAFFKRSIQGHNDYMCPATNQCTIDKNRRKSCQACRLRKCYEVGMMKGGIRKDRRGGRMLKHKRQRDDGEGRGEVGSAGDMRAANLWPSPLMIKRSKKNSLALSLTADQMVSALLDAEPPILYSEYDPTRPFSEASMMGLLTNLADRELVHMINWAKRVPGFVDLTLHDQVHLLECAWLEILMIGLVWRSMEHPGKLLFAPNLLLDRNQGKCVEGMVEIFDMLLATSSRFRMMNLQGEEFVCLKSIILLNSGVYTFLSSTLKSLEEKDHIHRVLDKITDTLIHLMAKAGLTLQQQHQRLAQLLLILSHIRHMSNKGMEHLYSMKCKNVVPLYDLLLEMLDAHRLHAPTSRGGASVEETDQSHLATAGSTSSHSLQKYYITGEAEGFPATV

[1] = off-target signal loss in HeLa-CEM21 co-culture – HeLa F-luc CTL cells, cherry-picked, counter-screen for HIV-1 Env fusion inhibitor project, dose response (AID 652040); format: functional, cell-based;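 note: potency for signal decrease marking cytotoxic or nonspecific inhibition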
[2] = target: T2, Neuropeptide Y receptor type 1 (Homo sapiens, UniProt P25929); test: Fluorescence-based counterscreen for agonists of NPY-Y2: cell-based high-throughput dose response assay for agonists of NPY-Y1.; format: functional
T2 sequence (P25929 whole entry): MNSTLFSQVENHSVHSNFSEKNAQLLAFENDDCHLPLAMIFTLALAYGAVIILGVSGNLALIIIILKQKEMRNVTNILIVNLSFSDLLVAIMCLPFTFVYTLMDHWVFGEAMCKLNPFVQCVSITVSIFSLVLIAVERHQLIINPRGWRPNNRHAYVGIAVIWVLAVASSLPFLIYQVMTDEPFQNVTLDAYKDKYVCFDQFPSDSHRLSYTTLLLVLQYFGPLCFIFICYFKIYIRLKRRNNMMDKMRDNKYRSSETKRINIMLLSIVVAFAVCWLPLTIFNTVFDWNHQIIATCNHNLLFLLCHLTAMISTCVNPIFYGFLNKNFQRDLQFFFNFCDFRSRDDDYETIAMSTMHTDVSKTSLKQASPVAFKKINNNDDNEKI

Galanin receptor type 2 = Galanin receptor type 2 (Homo sapiens, UniProt O43603); test: Dose Response cell-based high-throughput screening assay to identify antagonists of galanin receptor 2 (GALR2). [Related pubchem assays: 828, 866 ]; format: functional
Chain of Galanin receptor type 2 (O43603 whole entry): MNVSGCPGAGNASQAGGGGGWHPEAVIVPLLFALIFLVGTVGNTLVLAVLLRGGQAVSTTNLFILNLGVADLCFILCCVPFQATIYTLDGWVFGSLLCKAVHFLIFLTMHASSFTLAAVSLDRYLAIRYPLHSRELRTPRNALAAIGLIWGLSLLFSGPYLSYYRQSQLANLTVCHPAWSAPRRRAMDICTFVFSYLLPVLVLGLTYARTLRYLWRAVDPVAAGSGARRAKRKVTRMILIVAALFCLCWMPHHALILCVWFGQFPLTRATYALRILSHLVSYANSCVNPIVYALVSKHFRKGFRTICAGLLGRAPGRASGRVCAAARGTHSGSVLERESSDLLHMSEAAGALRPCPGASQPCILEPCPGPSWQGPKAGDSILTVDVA

[3] = target: T3, Neuropeptide Y receptor type 2 (Homo sapiens, UniProt P49146); test: Fluorescence-based cell-based high-throughput dose response assay for agonists of NPY-Y2. [Related pubchem assays: 1703 (Screening assay (CNGC inhibitors).), 1359 (Screening assay (NPY-Y2 potentiators or agonists).), 1304 (Screening assay (NPY-Y1 potentiators or agonists).), 1710 (Screening assay (NPY-Y2 agonists).), 1791 (Summary AID.)]; format: functional
T3 sequence (P49146 whole entry): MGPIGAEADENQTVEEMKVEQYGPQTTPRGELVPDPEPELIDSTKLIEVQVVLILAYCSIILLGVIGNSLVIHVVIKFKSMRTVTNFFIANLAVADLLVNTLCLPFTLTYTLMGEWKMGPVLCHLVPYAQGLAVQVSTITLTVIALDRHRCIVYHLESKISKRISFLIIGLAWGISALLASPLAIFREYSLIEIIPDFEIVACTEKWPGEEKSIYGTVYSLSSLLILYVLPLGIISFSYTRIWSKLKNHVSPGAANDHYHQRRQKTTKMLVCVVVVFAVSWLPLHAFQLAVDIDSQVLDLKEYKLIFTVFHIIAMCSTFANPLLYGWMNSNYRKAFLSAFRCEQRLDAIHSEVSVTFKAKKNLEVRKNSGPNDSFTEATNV

[4] = activation of miR-122 Renilla sensor silencing – cell-based, Huh7 psiCHECK-miR122, Renilla luciferase, cherry-picked, dose response (AID 651956); format: functional;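 note: huh7 hepatoma cells stably carrying a psiCHECK-2 miR-122 sensor plasmid; renilla luciferase signal reporting endogenous miR-122 activity after 48 h compound exposure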
[5] = target: T4, COUP transcription factor 2 (Homo sapiens, UniProt P24468); test: Luminescence-based cell-based high throughput dose response assay to identify inhibitors of COUP-TFII (NR2F2).; format: functional;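 note: HEK293 cells transiently cotransfected with COUP-TFII expression vector and reporter; luciferase reporter luminescence driven by COUP-TFII from the pX2-168 reporter plasmid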
T4 sequence (P24468 whole entry): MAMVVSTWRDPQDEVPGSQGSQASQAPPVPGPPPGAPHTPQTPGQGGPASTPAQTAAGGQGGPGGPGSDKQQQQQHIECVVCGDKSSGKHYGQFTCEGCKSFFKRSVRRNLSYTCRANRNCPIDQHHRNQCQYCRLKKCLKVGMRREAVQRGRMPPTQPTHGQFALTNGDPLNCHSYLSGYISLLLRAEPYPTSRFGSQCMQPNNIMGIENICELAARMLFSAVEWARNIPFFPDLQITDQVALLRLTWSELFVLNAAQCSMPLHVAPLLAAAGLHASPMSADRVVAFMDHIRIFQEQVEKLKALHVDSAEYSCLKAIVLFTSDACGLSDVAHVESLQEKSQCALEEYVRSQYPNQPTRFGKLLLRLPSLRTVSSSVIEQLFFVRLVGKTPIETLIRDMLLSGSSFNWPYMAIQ

[6] = general mammalian cell viability loss – inhibitor set, cherry-pick, set 2, cytotoxicity control for miR-122 modulator project, dose response (AID 720697); format: functional, cell-based
HEK293 = test: Fluorescence-based counterscreen for potentiators or agonists of NPY-Y2: cell-based high-throughput dose response assay to identify inhibitors of cyclic nucleotide gated ion channel (CNGC) activity. In this assay, the parental HEK293 cell line transfected with a cyclic-nucleotide gated ion channel (CNGC)-based cAMP sensor is used to measure inhibition of isoproterenol-induced CNGC activity by test compound.; format: functional; conditions: Homo sapiens;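 note: stimulus is 1 µM isoproterenol at EC100 plus PDE inhibitor Ro 20-1724 at 25 µM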
INS1 = test: INS-1E survival protection against cytokine death – cell-based, luminescence, retest, dose response (AID 449756); format: functional; conditions: Rattus norvegicus;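 note: cell death triggered by IL-1 beta plus TNF-alpha plus IFN-gamma mixture; protective hits raise ATP signal compared with cytokine alone wells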
[7] = HIV-1 AD8 envelope cell-cell fusion blockers – cherry-pick, dose response (AID 652062); format: functional, cell-based;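 note: luciferase signal from cell-cell fusion driven by HIV-1 clade B AD8 Env; potency is for inhibitors of fusion seen as a drop in luminescence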
[8] = general mammalian cell viability loss – activator set, cherry-pick, cytotoxicity control for miR-122 modulator project, dose response (AID 720690); format: functional, cell-based;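 note: HEK293T human cells scored for general mammalian cytotoxicity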
[9] = target: T2, Neuropeptide Y receptor type 1; format: functional
[10] = target: T3, Neuropeptide Y receptor type 2; format: functional, cell-based
H9c2 = test: cells; format: functional, cell-based; conditions: Rattus norvegicus, H9c2, Myocardium;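 note: confirmatory concentration-response retest of ultra-high-throughput screening hits for modulation of myocardial damage; cell death induced by hydrogen peroxide oxidative stress; compound pretreatment for 60 min then peroxide exposure for 2 h; potency is for protecting the cells against peroxide damage rather than for killing them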
[11] = restored growth of temperature-sensitive Burl-1 yeast – whole organism, S. cerevisiae, Burl-1 ts mutant, luminescence, counter-screen for SUMOylation pathway inhibitor project, dose response (AID 463199); format: functional

In the case of `Cc1cc(C(=O)CSc2nnc(-c3ccccc3F)o2)c(C)n1Cc1cccs1`, the EC50 (Estrogen receptor) is reported as 6.97 µM (active).

With `CC(=O)c1c(C)[nH]c(C(=O)OCCCCN2C(=O)c3ccccc3C2=O)c1C` the AC50 [1] was > 70 µM (inactive), the EC50 [2] was > 35.4 µM (not active) and the IC50 (Galanin receptor type 2) was > 42 µM (not active). For the same molecule, the EC50 [3] was > 35.4 µM (not active), the AC50 [4] was 38.4 µM (active) and the IC50 [5] was 7.55 µM (active). The AC50 [6] was 7.33 µM (active), the EC50 (HEK293) was > 35.4 µM (not active) and the AC50 (INS1) was 6.57 µM (active). For the same molecule, the AC50 [7] was 6.13 µM (active) and the AC50 [8] was 12.5 µM (active).

For `O=C(Nc1cccc(/N=C/c2cc(Br)cc(Br)c2O)c1)c1ccco1`, the IC50 [9] was > 35 µM (not active), the IC50 [10] was > 35 µM (not active) and the IC50 (H9c2) was 10.8 µM (active). The AC50 [11] was 57.9 µM (active).
